The values below come from US6613875B1, “Cyclic peptide tube” (The Scripps Research Institute, priority 1993, dated 2003).

A short description of assay [1]: Single channel conductance, micro patch clamp on planar lipid bilayers. The class given is biochemical. The following applies: for single channel conductance: peptide in the range of 10^−7 M in the subphase. An excerpt: FIG. 26 illustrates a 140 second continuous K^+ single channel conductance recording at 50 mV of the channel forming compounds indicated in FIG. 24. Open-closed transitions indicate gating mechanisms which may reflect structural flexibility or rapid assembly-disassembly of the tubular membrane channel structures. Short and long channel life times in the open state could be distinguished with values of t(short)=0.71±0.03 ms and t(long)=37.14±8.99 ms (total number of events 510) with an overall open probability P(O) of 0.29. Peptide concentration at the subphase was 1.0×10^−7 M. As is expected for any such self-assembling channel forming species, channel opening lifetimes show significant dependence on the peptide concentration. Raising the added peptide concentration in the subphase to 2.0×10^−5 M, produces open channel lifetimes of […] >30 seconds.
Formation of transmembrane channels was also inferred from its highly efficient proton transport activity. Vesicles were prepared having pH 6.5 inside and pH 5.5 in the outside bulk solution. The collapse of the imposed pH gradient in these vesicles, upon formation of the putative transmembrane channel structure, was studied by monitoring the fluorescence intensity of an entrapped pH-sensitive dye. (V.E. Carmichael et al, in J.Am. Chem. Soc. (1989), vol. 111, pages 767-769). […] Unilamellar vesicles were prepared by the reverse-phase evaporation using DPPC, OPPC, cholestrol in the ratio of 1:1:2 in a solution containing 5(6)-carboxyfluorescein (20 mM in phosphate/saline buffer: 137 mM NaCl, 2.6 mM KCl, 6.4 mM Na2HPO4, 1.4 mM KH2PO4, pH 6.5) according to the method of F. Szoka et al. in Proc. Natl. Acad. Sci. USA (1978), vol. 75, pages 4194-4198. Liposomes were then sized by multiple extrusions through Nucleopore® polycarbonate membranes (10 times, 50 psi, using 0.8 and 2×0.4 micron filter stacks) and the untrapped 5(6)-carboxyfluorescein was removed by size exclusion chromatography (Sephadex G-25 column 1×30 cm) using the same phosphate/saline buffer according to the method of F. Olson et al. in Biochim. Biophys. Acta (1979), vol. 557, pages 9-23. Vesicles formed in this way are approximately 150 nanometer in diameter as determined by electron microscopy. (R. R. C. New, Ed. Liposomes, Oxford university Press, 1990). In each experiment, 70 ml of the stock vesicle solution (3.5×10^−3 M in phospholipids) was added to pH 5.5 buffer (1.3 ml, 137 mM NaCl, 2.6 mM KCl, 6.4 Na2HPO4, 1.4 KH2PO4) and placed in a 1 cm quartz cuvett inside a stirring thermojacketed sample holder of the florescence instrument and equilibrated at 25° C. for 15 minutes with gentle stirring. To the cuvett, through an injector port, […] of the channel forming compounds in DMSO was added with continuous fluorescence monitoring at 520 nm (excitation at 470 nm). The observed data were then normalized for comparison into the fractional change in fluorescence ((I0−It)/(I0−I∞)) (V. E. Carmichael et al, in J.Am. Chem. Soc. (1989), vol. 111, pages 767-769)). […] The lipid bilayers used were formed on the tip of patch pipettes using a mixture of synthetic POPE: POPS (4:1) (1-palmitoyl-2-oleoyl-Sn-glycero-3-phosphatidylethano lamine and -serine). Five to 10 ml of the peptide solution (1.0×10^−7 or 2.0×10^−6 M in 25% DMSO in buffer solution containing 500 mM NaCl or KCl, 5 mM CaCl2, 10 mM HEPES, pH 7.5) was added to 150 ml subphase volume resulting in spontaneous partitioning of the peptide into the membrane. Ion channels formed spontaneously after peptide was added to the subphase of lipid bilayers. […] Data acquisition and analysis were performed on a Gateway 2000/486 computer using pClamp software package and TL-1 labmaster interface. Acquisition rate was 0.1 ms and data were filtered at 2 kHz.
The ultimate test in establishing and quantitating the transport efficiency of a membrane channel structure is to measure its single channel conductance using micro patch clamp techniques. […]
In general terms: Patch clamp records ionic current or voltage across a cell membrane.

Assay [2] in a line: Proton transport (collapse of pH gradient) in vesicles with entrapped 5(6)-carboxyfluorescein. The class given is biochemical. The following applies: vesicles pH 6.5 inside, pH 5.5 outside. An excerpt:
The proton efflux is expressed in terms of the fractional change in the fluorescence intensity of vesicle entrapped 5(6)-carboxyfluorescein as a function of time (sampling time was at 0.3 seconds interval). Equal molar amounts of channel forming compounds were used in each experiment to allow direct comparisons of channel-mediated proton transport activity. The amount of added channel forming compounds in each experiment ranged from of 2 to 20 nmoles corresponding to approximately 150 channels per liposome for the lowest concentrations to 1100 channels per liposome for the highest amount of added compounds.
Formation of transmembrane channels was also inferred from its highly efficient proton transport activity. Vesicles were prepared having pH 6.5 inside and pH 5.5 in the outside bulk solution. The collapse of the imposed pH gradient in these vesicles, upon formation of the putative transmembrane channel structure, was studied by monitoring the fluorescence intensity of an entrapped pH-sensitive dye. (V.E. Carmichael et al, in J.Am. Chem. Soc. (1989), vol. 111, pages 767-769). […] Unilamellar vesicles were prepared by the reverse-phase evaporation using DPPC, OPPC, cholestrol in the ratio of 1:1:2 in a solution containing 5(6)-carboxyfluorescein (20 mM in phosphate/saline buffer: 137 mM NaCl, 2.6 mM KCl, 6.4 mM Na2HPO4, 1.4 mM KH2PO4, pH 6.5) according to the method of F. Szoka et al. in Proc. Natl. Acad. Sci. USA (1978), vol. 75, pages 4194-4198. […] Vesicles formed in this way are approximately 150 nanometer in diameter as determined by electron microscopy. […] To the cuvett, through an injector port, […] of the channel forming compounds in DMSO was added with continuous fluorescence monitoring at 520 nm (excitation at 470 nm). The observed data were then normalized for comparison into the fractional change in fluorescence ((I0−It)/(I0−I∞)) (V. E. Carmichael et al, in J.Am. Chem. Soc. (1989), vol. 111, pages 767-769)). […]

Where [3] appears, read: K^+ recording at 50 mV, peptide 1.0×10^−7 M in subphase, 510 events.

Square brackets hold non-standard residues; d marks the D form. Where only a bound is given, the exact number is not on record here.

For “cyclo[-Gln-(D-Leu-Trp)4-D-Leu-] (cyclo(Q[dL]W[dL]W[dL]W[dL]W[dL]); SMILES CC(C)C[C@H]1NC(=O)[C@H](CCC(N)=O)NC(=O)[C@@H](CC(C)C)NC(=O)[C@H](Cc2c[nH]c3ccccc23)NC(=O)[C@@H](CC(C)C)NC(=O)[C@H](Cc2c[nH]c3ccccc23)NC(=O)[C@@H](CC(C)C)NC(=O)[C@H](Cc2c[nH]c3ccccc23)NC(=O)[C@@H](CC(C)C)NC(=O)[C@H](Cc2c[nH]c3ccccc23)NC1=O) [10-residue cyclic peptide forming 10 Å pores that transport glucose]”, the “ion transport rate / efficiency” value in assay [1] (single ion channel recordings) is reported as > 10^7 ions.sec^−1.

On to “cyclo[-(Trp-D-Leu)3-Gln-D-Leu-] (cyclo(W[dL]W[dL]W[dL]Q[dL]); SMILES CC(C)C[C@H]1NC(=O)[C@H](CCC(N)=O)NC(=O)[C@@H](CC(C)C)NC(=O)[C@H](Cc2c[nH]c3ccccc23)NC(=O)[C@@H](CC(C)C)NC(=O)[C@H](Cc2c[nH]c3ccccc23)NC(=O)[C@@H](CC(C)C)NC(=O)[C@H](Cc2c[nH]c3ccccc23)NC1=O) [eight residue ion channel forming cyclic peptide, approximately 7.5 Å pore]”, for which, in assay [2], the “collapse of the imposed pH gradient upon addition of peptide” value is given as “rapid collapse of the pH gradient”. Further, the single channel conductance in assay [1] (500 mM KCl) is about 65 pS; in assay [1] (500 mM NaCl), “approximately 55 pS”. The “actual rate of channel-mediated ion transport” value was 2.2×10^7 ion.sec^−1 in assay [1] (K^+) and 1.8×10^7 ion.sec^−1 in assay [1] (Na^+). The “overall open probability P(O)” value in assay [1] (K^+ recording at 50 mV, peptide 1.0×10^−7 M in subphase) amounted to 0.29. The “channel life time in the open state, t(long)” value in assay [1] (setting [3]) worked out at 37.14 ± 8.99 ms. The “channel life time in the open state, t(short)” value in assay [1] (setting [3]) worked out at 0.71 ± 0.03 ms. Besides, the “rate of ion transport relative to gramicidin A under similar conditions” value in assay [1] (gramicidin A value from literature) is listed as “three”. Further, the “dependence of single channel conductance on applied voltage” value in assay [1] (measured range of 10-100 mV) was “independent of the applied voltage”. The substance also showed an open channel lifetimes in assay [1] (peptide concentration in the subphase raised to 2.0×10^−5 M) of over 30 s. Besides, in assay [1] (symmetrical solutions of 500 mM NaCl or KCl, 5 mM CaCl2, 10 mM HEPES, pH 7.5), the “ion channel activity observed (membranes with activity)” value is reported as 14 out of 22.
